One block for each compound: values may come before it.
Experiments:
[1] = Differential scanning calorimetry for thermal stability; conditions: DSC, measure of thermal stability
Method: Differential scanning calorimetry (DSC) was used to investigate the thermal stability as well as interaction between liposomes and entrapped protein.
For thermal stability analysis of liposomes and encapsulated protein, two mg of standard lipids, protein and liposome samples were loaded in aluminum pans along with the standard reference aluminum in the differential scanning calorimeter (Shimadzu DSC 60). The thermal profiles were recorded between 10° C. and 180° C. at a scan rate of 15° C./min for three cycles.

[2] = L-DOPA oxidation in solution (UV-Vis, LC/MS); assay type: physicochemical
Method: The solution was stored with minimal exposure to light. […] In order to accelerate the complete oxidation of L-DOPA starting material, the substance was reacted in at pH 10. […] These hydrophobic oxidation products were separated and collected for in vitro experiments with epithelialcells.
LC/MS analysis was performed using an LCQ Advantage Mass Spectrometer System with a Surveyor LC Pump and PDA Detector (Thermo Finnigan). Separations were performed on a 100 mm×3.0 mm Kinetex C18 column. Mobile phase was 0.1% formic acid in MeOH (B) balanced with water. […] Absorbance was monitored at 280 and 320 nm. For ESI-MS conditions, capillary temperature was 200° C. and spray voltage was set to 4.5 kV. […] Full spectra were collected between m/z range of 200-1000.

[3] = cited from earlier work
[4] = oral, in the absence of decarboxylase inhibitors; cited from earlier work
[5] = Intravitreal drug release and toxicity in rabbit's eye (Fluorotron, ELISA, histopathology); assay type: in vivo, Oryctolagus cuniculus (Dutch belted rabbits); conditions: single intravitreal injection
Method: The efficacy of the liposomes and the combination product has been tested using rabbit models. The experimental design of this experiment involving Oryctolagus cuniculus (Dutch belted rabbits) was approved by the Northern Illinois University Institutional Animal Care and Use Committee (IACUC) and is as follows. Rabbits were divided into 4 groups and each rabbit was injected with the formulation in the right eye using left eye as control.
Drug release profiles in the rabbit's eye over a period of time was measured non-invasively using the Fluorotron. […] Light re-emitted (reflection and fluorescence) by the fluorescent tag on the protein is sampled from the 1.9×0.1 mm slit, aligned to the excitation and defined by an aperture Rd (which is confocal to Re). […] The configuration of these pupils is in the plane of the subject's pupil minimizes contributions from the fluorescence outside of the measurement point by separating the excitation and detection paths. Another band-pass filter rejects reflected excitation light, and the fluorescence collected by aperture Rd is detected using a red-extended end-on photomultiplier tube selected for low (<100 count/sec.) dark noise. As the focus lens is driven forward the emission signal is continuously monitored from retina to cornea, giving an intensity output. […]

[6] = cited from earlier work; remark: listed apart in the source
ARPE-19 cells = test: MTT cell viability with Avastin and Avastin liposomes; assay type: cell-based; conditions: exposed to 2 mg of the antibody
Method: ARPE-19 cells purchased from American Type Culture Collection were used. […] Cells were plated in 12-well plates with an initial seeding density of 5×10^4 cells per ml in each plate. Cells were grown to confluency for 4 days prior to experimentation; 12-well plates were used for MTT assays. 1.5 ml of 25 mg/ml Avastin solution was sterile filtered to create a stock solution that was transferred to a sterile centrifuge tube. Each well of the 12 well plate had its media aspirated out and was then rinsed with buffer which was also aspirated out. […] Enough media was added to each well to create a total volume of 1 ml in each well. […] 1.3 ml of 10% MTT 5 mg/ml in PBS and 11.7 ml of 90% media (with phenol red) was used. MTT in PBS was added to the media in a centrifuge tube and then sterile filtered. The filtered mixture was then plated on the 12 well plate (1 ml per well). The plate was then incubated for 90 minutes. After incubation, the MTT media was aspirated. 1 ml of DMSO per well was added. The MTT assay was read at 560 nm.

RPE cells = conditions: 2.5 mg/ml; cited from earlier work

- Melting temperature, Tm [1]: ~154° ° C.
Compound: CC(C)CCC[C@@H](C)[C@H]1CC[C@H]2[C@@H]3CC=C4C[C@@H](O)CC[C@]4(C)[C@H]3CC[C@]12C [Cholesterol]

Compound: CCCCCCCCCCCCCC(=O)OC[C@H](COP(=O)([O-])OCC[N+](C)(C)C)OC(=O)CCCCCCCCCCCCC [DMPC]
- Melting temperature, Tm [1]: ~42° ° C.

Compound: CCCCCCCC/C=C\CCCCCCCC(=O)OC[C@H](COP(=O)(O)OCCN)OC(=O)CCCCCCC/C=C\CCCCCCCC [DOPE]
- Melting temperature, Tm [1]: ~63° ° C.

Compound: CCCCCCCCCCCCCCCCCC(=O)OCC(COP(=O)(O)OCC(O)CO)OC(=O)CCCCCCCCCCCCCCCCC (stereo not drawn) [DSPG]
- Melting temperature, Tm [1]: ~40° ° C.

- oxidation of L-DOPA ([2]; PBS pH 7.4, after 3 days, minimal exposure to light): does not undergo complete oxidation
- oxidation of L-DOPA ([2]; pH 7.4 solution, after 35 days): substantial oxidation
- oxidation of L-DOPA ([2]; pH 10, after 24 hours): completely consumed
Compound: N[C@@H](Cc1ccc(O)c(O)c1)C(=O)O [L-DOPA]
- drug oxidized to melanin ([3]; after 24 hr in neutral pH): 47%
- drug oxidized ([3]; under basic conditions): at least 50.9%
- unmetabolized drug reaching the brain [4]: less than 1%

Compound: Bevacizumab: anti-VEGF antibody, anti-angiogenic agent
- Time of release of a therapeutic concentrate [5]: 5 weeks
- intravitreal half-life ([6]; intravitreal): about 4.32 days
- concentration in the vitreous ([6]; maintained over a period of 30 days): about 10 μg/ml
- cell viability (MTT) (ARPE-19 cells): decreased slightly
- effect on RPE cells (RPE cells): cytotoxic effects
